# In patent US6713504B2, “Antifungal molecule 2-(3,4-dimethyl-2,5-dihydro-1H-pyrrol-2-yl)-1-methylethyl pentanoate” (Council of Scientific & Industrial Research, priority 2002, dated 2004):
# Tested on: A. fumigatus
# Experiment: Microbroth dilution assay
# Format: cell-based
# Design: key to Activity of the compound against Aspergillus sp. after 48 hrs.: +ve if medium appeared clear with out any growth of fungi; −ve if growth was there
# Protocol: Pathogenic strains of fungi were obtained from the Mycology Department of Vallabhbhai Patel Chest Institute, Delhi. All the strains were grown on Sabouraud dextrose agar at 37° C. The conidia form these cultures were harvested and suspended in Sabouraud maltose broth. The number of conidia was counted using haemocytometer and their number in the suspension was adjusted to as per need of the experiment.
# The antifungal susceptibility of the fungi to various fractions or the purified component was assayed by the microbroth dilution method (Forthergill A. W. and McGough A. W., 1995, Clin. Microbiol. Procedure Handbook. In Vitro susceptibility Testing of Yeast, 5.15.1-5.15.15). The fungal spores were harvested from 96-h cultures and their number adjusted to 1×10^6 per ml. The Sabouraud Dextrose medium was dissolved in glass double distilled water and autoclaved at 10 psi for 15 min. 90-μl medium was added into the wells of cell culture plates. The different concentrations of the extract, fractions or the purified compound were prepared in duplicate wells and then the wells were inoculated with 10 μl of spore suspension. The plates were incubated at 37° C. and examined macroscopically after 48 h for the growth of fungal mycelia. The activity was represented as −ve if growth was there and +ve if medium appeared clear with out any growth of fungi.
# The antifungal susceptibility of the fungi to the purified compound was assayed by the microbroth dilution method. The different concentrations of the purified compound ranging from 21.87 to 350 μg/ml were prepared in duplicate wells by twofold dilution method. The test was done as described above.
smiles,measurement,setting,value
"CCCCC(=O)OC(C)CC1NCC(C)=C1C (stereo not drawn) [PC-1, 2-(3,4-dimethyl-2,5-dihydro-1H-pyrrol-2-yl)-1-methylethyl pentanoate]",Activity of the compound against Aspergillus sp. after 48 hrs.,21.87 μg/ml,−
same,Activity of the compound against Aspergillus sp. after 48 hrs.,43.75 μg/ml,−
same,MIC,"Aspergillus fumigatus, no visual growth, 48 h",87.5 µg/mL
